Experimental data taken from patent publication EP4778929A1, “NOVEL TYPE I TOPOISOMERASE INHIBITOR, AND PREPARATION METHOD THEREFOR AND USE THEREOF” (priority 2023, dated 2025).
“And” between values parts separate entries of the source, which are not always exact repeats. Equal entries are not always repeated. Where two headings read alike, the source gives them in different places.

Tests used:
topoisomerase I (Topo I) = biological target: T1, topoisomerase I (Topo I) (Homo sapiens, UniProt P11387); test: Topo I enzyme-inhibitory activity by agarose-gel electrophoresis (plasmid relaxation); format: biochemical
T1 sequence (P11387 1-765): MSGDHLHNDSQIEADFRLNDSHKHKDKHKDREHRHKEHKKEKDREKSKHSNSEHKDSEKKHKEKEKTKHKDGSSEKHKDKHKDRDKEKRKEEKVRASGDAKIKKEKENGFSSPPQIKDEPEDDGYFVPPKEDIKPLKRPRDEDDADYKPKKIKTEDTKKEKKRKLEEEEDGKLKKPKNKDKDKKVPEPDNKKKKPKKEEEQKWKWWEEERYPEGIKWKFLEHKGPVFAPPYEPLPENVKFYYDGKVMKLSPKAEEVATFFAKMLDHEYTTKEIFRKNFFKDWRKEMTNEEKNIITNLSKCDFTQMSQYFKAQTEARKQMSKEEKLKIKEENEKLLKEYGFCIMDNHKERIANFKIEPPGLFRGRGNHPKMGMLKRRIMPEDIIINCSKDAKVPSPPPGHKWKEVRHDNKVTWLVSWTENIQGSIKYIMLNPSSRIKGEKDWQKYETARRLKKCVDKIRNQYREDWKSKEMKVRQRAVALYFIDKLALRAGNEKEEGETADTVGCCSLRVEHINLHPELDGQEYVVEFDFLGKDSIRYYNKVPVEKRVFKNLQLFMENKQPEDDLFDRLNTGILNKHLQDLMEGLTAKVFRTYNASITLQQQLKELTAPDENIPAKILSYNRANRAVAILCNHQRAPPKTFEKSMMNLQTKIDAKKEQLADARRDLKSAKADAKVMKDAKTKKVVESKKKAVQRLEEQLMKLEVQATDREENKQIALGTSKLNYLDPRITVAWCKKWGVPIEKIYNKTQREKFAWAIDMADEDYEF
From the text: Test Example 1. Determination of Topo I Enzyme-Inhibitory Activity by Agarose-Gel Electrophoresis
Principle: Type-I topoisomerase (Topo I) relaxes positive and negative supercoils by introducing transient single-strand breaks and forming reversible cleavage complexes (Topo I-DNA covalent complexes). Gel electrophoresis can resolve DNA species of identical molecular weight but different topology: supercoiled plasmid migrates fastest, whereas the nicked, relaxed form moves more slowly. Quantifying the decrease in supercoiled DNA therefore provides a direct measure of Topo I activity.
Experimental Procedure: A 1× reaction buffer was prepared (20 mM Tris-HCl pH 7.5, 200 mM NaCl, 0.25 mM EDTA, 5 % (v/v) glycerol, 0.5 µg pNO1 plasmid substrate). Test compounds (5 % DMSO final) were added to the buffer, followed by Topo I enzyme (0.75 U per reaction). After gentle mixing, reactions were incubated at 37 °C for 30 min. Positive (enzyme + vehicle) and negative (no enzyme) controls were included in parallel. Reactions were terminated by adding STEB buffer and chloroform/iso-amyl alcohol (24:1, v/v), vortexed and centrifuged for 2 min. The aqueous (upper) phase was loaded onto a 1 % (w/v) agarose gel, electrophoresed for 1-2 h, stained with GelRed, and imaged under UV trans-illumination.
Data Analysis: Band intensities of supercoiled DNA were quantified with image-analysis software. Relaxation activity (%) was calculated as (Max-Sample)/ (Max-Min)*100%, where Max = intensity of the no-enzyme negative control, Min = intensity of the vehicle-only positive control, and Sample = intensity of the compound-treated lane. Dose-response data (compound concentration, X; relaxation activity %, Y) were fitted in Excel or GraphPad Prism 5.0 using the four-parameter logistic equation: Y=Bottom + (Top-Bottom)/(1+(IC50/X)[…]) to derive the IC50 value for each compound.
Table 1. Compound-mediated inhibition of topoisomerase I (Topo I) enzymatic activity

HCT116 cells = test: Inhibition of cell proliferation by CTG (CellTiter-Glo) luminescence assay; format: cell-based; conditions: Homo sapiens, read-out: HCT116, IC50
In short: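 Nine-point 1:3 dilutions applied to HCT116 cells (2 000/well, McCoy's 5a + 10 % FBS) for 72 h at 37 °C, final DMSO 0.25 %. Viability read by CellTiter-Glo luminescence; % inhibition versus DMSO controls fitted to four-parameter logistic for IC50.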

[1] = read-out: inhibition of topoisomerase I (Topo I) enzymatic activity, IC50; 0.75 U Topo I, pNO1 plasmid, 37 °C, 30 min; compounds listed by group (Group A / Group B)
[2] = 0.75 U Topo I, pNO1 plasmid, 37 °C, 30 min; compounds listed by group (Group A / Group B); read-out: inhibition of topoisomerase I (Topo I) enzymatic activity, IC50
[3] = HCT-116, 72 h incubation, CellTiter-Glo

Row | SMILES | IC50 (topoisomerase I (Topo I); [1]) | IC50 (HCT116 cells; HCT-116, 72 h) | IC50 (topoisomerase I (Topo I); [2]) | IC50 (HCT116 cells; [3])
1 | CC[C@@]1(O)C(=O)OCc2c1cc1n(c2=O)Cc2c-1c(=O)c1cc(F)cc(CNC3CC3)c1n2C [Example 88, (S)-10-((cyclopropylamino)methyl)-4-ethyl-8-fluoro-4-hydroxy-11-methyl-1,12-dihydro-14H-pyrano[3,4:6,7]indolizino[2,1-b] quinoline-3,6,14(4H,11H)-trione] | 200 to 500 nM | < 20 nM |  | 
2 | CC[C@@]1(O)C(=O)OCc2c1cc1n(c2=O)Cc2c-1c(=O)c1cc(F)ccc1n2CCN(C1CC1)C1CC(F)(F)C1 [Example 101, (S)-11-(2-(cyclopropyl(3,3-difluorocyclobutyl)amino)ethyl)-4-ethyl-8-fluoro-4-hydroxy-1,12-dihydro-14H-pyrano[3,4:6,7] indolizino[2,1-b]quinoline-3,6,14(4H,11H)-trione] | 200 to 500 nM and < 200 nM | < 20 nM |  | 
3 | CC[C@@]1(O)C(=O)OCc2c1cc1n(c2=O)Cc2c-1c(=O)c1cc(F)ccc1n2C1CC1 [Example 37, (S)-4-ethyl-8-fluoro-4-hydroxy-11-cyclopropyl-1,12-dihydro-14H-pyrano[3',4':6,7]indolizino[2,1-b]quinoline-3,6,14(4H,11H)-trione] | < 200 nM | < 20 nM |  | 
4 | CC[C@@]1(O)C(=O)OCc2c1cc1n(c2=O)Cc2c-1c(=O)c1cc(F)c(C)cc1n2CCN(C1CCCC1)C1CC1 [Example 167] | 200 to 500 nM | < 20 nM |  | 
5 | CC[C@@]1(O)C(=O)OCc2c1cc1n(c2=O)Cc2c-1c(=O)c1cc(F)c(N)cc1n2-c1ccc2c(c1)OC(F)(F)O2 [Example 354] | < 200 nM | < 20 nM |  | 
6 | CC[C@@]1(O)C(=O)OCc2c1cc1n(c2=O)Cc2c-1c(=O)c1cc(F)cc(CN(C)C3CC3)c1n2C [Example 89, (S)-10-((cyclopropyl(methyl)amino)methyl)-4-ethyl-8-fluoro-4-hydroxy-11-methyl-1,12-dihydro-14H-pyrano[3,4:6,7]indolizino[2,1-b]quinoline-3,6,14(4H,11H)-trione] | 200 to 500 nM | < 20 nM |  | 
7 | CC[C@@]1(O)C(=O)OCc2c1cc1n(c2=S)Cc2c-1c(=O)c1cc(F)cc(C)c1n2C [Example 39, (S)-4-ethyl-8-fluoro-4-hydroxy-10,11-dimethyl-14-thioxo-12,14-dihydro-1H-pyrano[3',4':6,7]indolizino[2,1-b]quinoline-3,6(4H, 11H)-dione] |  |  | < 200 nM | < 20 nM
8 | CC[C@@]1(O)C(=O)OCc2c1cc1n(c2=O)Cc2c-1c(=O)c1cc(F)ccc1n2CCNC1CCC1 [Example 106] | 200 to 500 nM | < 20 nM |  | 
9 | CC[C@@]1(O)C(=O)OCc2c1cc1n(c2=O)Cc2c-1c(=O)c1cc(F)c(C)cc1n2CCNC1CCCC1 [Example 163] | 200 to 500 nM | < 20 nM |  | 
10 | CC[C@@]1(O)C(=O)OCc2c1cc1n(c2=O)Cc2c-1c(=O)c1cc(F)ccc1n2CCN(C1CC1)C1CC1 [Example 140] | < 200 nM | < 20 nM |  | 
11 | CC[C@@]1(O)C(=O)OCc2c1cc1n(c2=O)Cc2c-1c(=O)c1cc(F)c(N)cc1n2C1CCC(C)(C)CC1 [Example 70, (S)-9-amino-4-ethyl-8-fluoro-4-hydroxy-11-(4,4-dimethylcyclohexyl)-1,12-dihydro-14H-pyrano[3,4:6,7]indolizino[2,1-b] quinoline-3,6,14(4H,11H)-trione] | 200 to 500 nM | < 20 nM |  | 
12 | CCOCCc1cc(F)cc2c(=O)c3c(n(C)c12)Cn1c-3cc2c(c1=O)COC(=O)[C@]2(O)CC [Example 23, (S)-10-(2-ethoxyethyl)-4-ethyl-8-fluoro-4-hydroxy-11-methyl-1,12-dihydro-14H-pyrano[3,4:6,7]indolizino[2,1-b]quinoline-3,6,14 (4H,11H)-trione] | 200 to 500 nM | < 20 nM |  | 
13 | CC[C@@]1(O)C(=O)OCc2c1cc1n(c2=O)Cc2c-1c(=O)c1cc(F)ccc1n2CCN1C2CCC1CC(F)(F)C2 [Example 187] | 200 to 500 nM | < 20 nM |  | 
14 | CC[C@@]1(O)C(=O)OCc2c1cc1n(c2=O)Cc2c-1c(=O)c1cc(F)c(C)cc1n2CCNC1CC1 [Example 161] | 200 to 500 nM | < 20 nM |  | 
15 | CC[C@@]1(O)C(=O)OCc2c1cc1n(c2=O)Cc2c-1c(=O)c1cc(F)cc(C)c1n2CCNC1CCCC1 [Example 168] | 200 to 500 nM | < 20 nM |  | 
16 | CC[C@@]1(O)C(=O)OCc2c1cc1n(c2=O)Cc2c-1c(=O)c1cc(F)c(C)cc1n2CCN(C1CC1)C1CC(F)(F)C1 [Example 165] | 200 to 500 nM | < 20 nM |  | 
17 | CC[C@@]1(O)C(=O)OCc2c1cc1n(c2=O)Cc2c-1c(=O)c1cc(F)ccc1n2-c1cccc(OC)c1 [Example 73, (S)-4-ethyl-8-fluoro-4-hydroxy-11-(3-methoxyphenyl)-1,12-dihydro-14H-pyrano[3,4:6,7]indolizino[2,1-b]quinoline-3,6,14(4H,11H)-trione] | 200 to 500 nM | < 20 nM |  | 
18 | CC[C@@]1(O)C(=O)OCc2c1cc1n(c2=O)Cc2c-1c(=O)c1cc(F)ccc1n2CCN(C1CCC1)C1CCC1 [Example 119] | 200 to 500 nM | < 20 nM |  | 
19 | CC[C@@]1(O)C(=O)OCc2c1cc1n(c2=O)Cc2c-1c(=O)c1cc(F)cc(C)c1n2CCN(C)C1CCCC1 [Example 172] | 200 to 500 nM | < 20 nM |  | 
20 | CC[C@@]1(O)C(=O)OCc2c1cc1n(c2=O)Cc2c-1c(=O)c1cc(F)ccc1n2CCN1CCC(F)(F)CC1 [Example 190] | < 200 nM | < 20 nM |  | 
21 | CC[C@@]1(O)C(=O)OCc2c1cc1n(c2=O)Cc2c-1c(=O)c1cc(F)cnc1n2C [Example 19, (S)-7-ethyl-3-fluoro-7-hydroxy-14-methyl-10,14-dihydro-11H-pyrano[3',4':6,7]indolizino[2,1-b][1,8]diazepine-5,8,11(7H,13H)-trione] | 200 to 500 nM | < 20 nM |  | 
22 | CC[C@@]1(O)C(=O)OCc2c1cc1n(c2=O)Cc2c-1c(=O)c1cc(F)ccc1n2-c1cnn(C)c1 [Example 57, (S)-4-ethyl-8-fluoro-4-hydroxy-11-(1-methyl-1H-pyrazol-4-yl)-1H-pyrano[3',4':6,7]indolizino[2,1-b]quinoline-3,6,14(4H,11H,12H) -trione] |  |  | 200 to 500 nM | < 20 nM
23 | CC[C@@]1(O)C(=O)OCc2c1cc1n(c2=O)Cc2c-1c(=O)c1cc(F)ccc1n2C [Example 6, (S)-4-ethyl-8-fluoro-4-hydroxy-11-methyl-1,12-dihydro-14H-pyrano[3',4':6,7]indazino[2,1-b]quinoline-3,6,14(4H,11H)-trione] |  |  | < 200 nM | < 20 nM
24 | CC[C@@]1(O)C(=O)OCc2c1cc1n(c2=O)Cc2c-1c(=O)c1cc(F)ccc1n2CCN1CC2(CC2)C1 [Example 182, (S)-11-(2-(5-azaspiro[2.3]hexan-5-yl)ethyl)-4-ethyl-8-fluoro-4-hydroxy-1,12-dihydro-14H-pyrano[3',4':6,7]indolizino[2,1-b]quinoline-3,6,14(4H,11H)-trione] |  |  | 200 to 500 nM | < 20 nM
25 | CC[C@@]1(O)C(=O)OCc2c1cc1n(c2=O)Cc2c-1c(=O)c1cc(F)ccc1n2-c1cccc(N)c1 [Example 71, (S)-11-(3-aminophenyl)-4-ethyl-8-fluoro-4-hydroxy-1H-pyrano[3,4:6,7]indolizino[2,1-b]quinoline-3,6,14(4H,11H,12H)-trione] | 200 to 500 nM | < 20 nM |  | 
